This assay deals with BDF1 mice, B16 melanoma ip, median survival T/C. The assay is described as follows: NCI In Vivo Anticancer Drug Screen. Data for tumor model B16 Melanoma (intraperitoneal) in B6D2F1 (BDF1) mice. The following applies: endpoint: median survival time, higher = longer survival. A digest of the protocol: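 Survival or tumor size is measured after treatment of tumor-bearing mice and normalised to the vehicle-treated control group.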

The mark [1] stands for this setting: dose: 12.5 mg/kg/injection, schedule: Q01DX009 (ip), vehicle: saline.
[2] abbreviates: dose: 25.0 mg/kg/injection, schedule: Q01DX009 (ip), vehicle: saline.
Setting [3] is: dose: 50.0 mg/kg/injection, schedule: Q01DX009 (ip), vehicle: saline.
Where [4] appears, read: dose: 100.0 mg/kg/injection, schedule: Q01DX009 (ip), vehicle: saline.
Where [5] appears, read: dose: 200.0 mg/kg/injection, schedule: Q01DX009 (ip), vehicle: saline.
Where [6] appears, read: dose: 100.0 mg/kg/injection, schedule: Q01DX009 (ip), vehicle: Klucel (hydroxypropylcellulose) (HPC).

“And” between values parts separate entries of the source, which are not always exact repeats. Equal values may be shown once. Inconclusive results and toxic doses are left out.

Regarding `NC(Cc1cc([N+](=O)[O-])ccc1CN(CCCl)CCCl)C(=O)O` (stereo not drawn), the T/C (dose: 1.0 mg/kg/injection, schedule: Q01DX009 (ip), vehicle: Klucel (hydroxypropylcellulose) (HPC)) is 178 % of control; the T/C (dose: 1.88 mg/kg/injection, schedule: Q04DX003 (ip), vehicle: Klucel (hydroxypropylcellulose) (HPC)) was 158 % of control; the T/C (dose: 2.0 mg/kg/injection, schedule: Q01DX009 (ip), vehicle: Klucel (hydroxypropylcellulose) (HPC)) is 193 % of control; the T/C (dose: 3.12 mg/kg/injection, schedule: Q01DX001 (ip), vehicle: Klucel (hydroxypropylcellulose) (HPC)) is 164 % of control; the T/C (dose: 3.78 mg/kg/injection, schedule: Q04DX003 (ip), vehicle: Klucel (hydroxypropylcellulose) (HPC)) is 173 % of control; the T/C (dose: 4.0 mg/kg/injection, schedule: Q01DX009 (ip), vehicle: Klucel (hydroxypropylcellulose) (HPC)) is 240 % of control. The T/C is 170 % of control (dose: 6.25 mg/kg/injection, schedule: Q01DX001 (ip), vehicle: Klucel (hydroxypropylcellulose) (HPC)); 185 % of control (dose: 7.5 mg/kg/injection, schedule: Q04DX003 (ip), vehicle: Klucel (hydroxypropylcellulose) (HPC)); 261 % of control (dose: 8.0 mg/kg/injection, schedule: Q01DX009 (ip), vehicle: Klucel (hydroxypropylcellulose) (HPC)); 186 % of control (dose: 12.5 mg/kg/injection, schedule: Q01DX001 (ip), vehicle: Klucel (hydroxypropylcellulose) (HPC)); 164 % of control (dose: 15.0 mg/kg/injection, schedule: Q04DX003 (ip), vehicle: Klucel (hydroxypropylcellulose) (HPC)).

As for `COc1cc2c(c(OC)c1OC)-c1ccc(OC)c(=O)cc1[C@@H](NC(=O)CCl)CC2`, the T/C is, setting by setting: (dose: 0.25 mg/kg/injection, schedule: Q01DX009 (ip), vehicle: saline with Tween-80) 154 % of control; (dose: 0.5 mg/kg/injection, schedule: Q01DX009 (ip), vehicle: saline with Tween-80) 161 % of control.

Consider `CN(C)CCOc1ccccc1Cc1ccccc1`, for which the T/C reads like this: under setting [1], 121 % of control; under setting [2], 106 % of control and 107 % of control; under setting [3], 95 % of control and 100 % of control; under setting [4], 105 % of control; under setting [5], 94 % of control.

Turning to `CCCCNCC1COc2cccc(OCC)c2O1` (stereo not drawn), the T/C is, setting by setting: (dose: 3.12 mg/kg/injection, schedule: Q01DX009 (ip), vehicle: saline) 120 % of control; (dose: 6.25 mg/kg/injection, schedule: Q01DX009 (ip), vehicle: saline) 95 % of control; under setting [1], 97 % of control; under setting [2], 105 % of control; under setting [3], 100 % of control.

`CC(=O)OCC1OC(S[As](C)C)C(OC(C)=O)C(OC(C)=O)C1OC(C)=O` (stereo not drawn): the T/C (dose: 50.0 mg/kg/injection, schedule: Q01DX009 (ip), vehicle: Klucel (hydroxypropylcellulose) (HPC)) is 107 % of control and the T/C under setting [6] is 96 % of control.

For the molecule `N[C@@H](Cc1ccc(O)c(O)c1)C(=O)O`, the T/C was 109 % of control under setting [2]; 98 % of control and 100 % of control under setting [3]; 102 % of control and 104 % of control under setting [4]; 102 % of control and 108 % of control under setting [5]; 97 % of control and 104 % of control (dose: 400.0 mg/kg/injection, schedule: Q01DX009 (ip), vehicle: saline).

On to `CCCCCCCC(=O)CCCC`, for which the T/C reads like this: under setting [6], 106 % of control; (dose: 200.0 mg/kg/injection, schedule: Q01DX009 (ip), vehicle: Klucel (hydroxypropylcellulose) (HPC)) 106 % of control; (dose: 400.0 mg/kg/injection, schedule: Q01DX009 (ip), vehicle: Klucel (hydroxypropylcellulose) (HPC)) 94 % of control.

(Values after PubChem BioAssay AID192 (DTP/NCI, 2004).)
